Reference: US20260365670A1, “EGFR INHIBITORS AND USES THEREOF” (DIZAL (JIANGSU) PHARMACEUTICAL CO., LTD., priority 2022, published 2026)
Like-named read-outs stand apart in the source and are kept apart here.

Columns and labels:
[1] = tested on: A-431; test: Cell proliferation assay, A-431 cells (GI50, Table 6); assay type: cell-based
Protocol: [Worded in the source for another cell line; this cell line is reported under the same test.] Ba/F3 cells expressing EGFR mutations were seeded in 384-well plates at 5000 cells/well in RPMI1640 medium containing […]. PC-9 at 500 cells/well was seeded into 384-well plates in RPMI1640 medium with 10% FBS. After overnight incubation, the assay plates were dosed with compounds at a series of concentrations. Alongside dosing the assay plates, the day 0 plate was processed using CellTiter-Glo® Luminescent Cell Viability Assay (Promega) to measure the number of viable cells (G0). The assay plates were further incubated for 72 hours and the number of viable cells (G3) was measured. The percentage of proliferation was calculated as: […]=100×(G3 value of sample well−G0 value)/(G3 value of DMSO control−G0 value). The concentration of compound producing 50% proliferation inhibition (GI50) was further calculated in best-fit curves using XLFit software. N/A=not available.

[2] = molecular target: T1, EGFR[T790M/C797S/d746-750] (Homo sapiens, UniProt P00533, C797S/DEL746-750/T790M); test: Inhibition of EGFR[T790M/C797S/d746-750] biochemical enzymatic activity (HTRF)
T1 construct: purchased Carna Bio
How it was run: (§1)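 Compounds at varying concentrations were tested against each EGFR form using 1 mM ATP and 1 μM TK Substrate-biotin. Reactions ran 1 h at room temperature in Mg2+/Mn2+ buffer with CHAPS, DTT and 0.5% DMSO. Time-resolved fluorescence gave IC50 by four-parameter fit.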

[3] = molecular target: T2, EGFR (d746-750 C797S) (Homo sapiens, UniProt P00533, C797S/DEL746-750); test: Inhibition of EGFR (d746-750 C797S) biochemical enzymatic activity (HTRF); details: 1 mM ATP
T2 construct: purchased signalchem
How it was run: as §1

[4] = molecular target: T3, EGFR L858R/T790M (Homo sapiens, UniProt P00533, L858R/T790M); test: Inhibition of EGFR L858R/T790M biochemical enzymatic activity (HTRF); details: 1 mM ATP
T3 construct: purchased Carna Bio
How it was run: as §1

[5] = molecular target: T4, EGFR[T790M/C797S/L858R] (Homo sapiens, UniProt P00533, C797S/L858R/T790M); test: Inhibition of EGFR[T790M/C797S/L858R] biochemical enzymatic activity (HTRF); details: 1 mM ATP
T4 construct: purchased Carna Bio
How it was run: as §1

[6] = molecular target: T5, EGFR L858R (Homo sapiens, UniProt P00533, L858R); test: Inhibition of EGFR L858R biochemical enzymatic activity (HTRF); details: 1 mM ATP
T5 construct: purchased Carna Bio
How it was run: as §1

[7] = molecular target: T6, EGFR wild type (Homo sapiens, UniProt P00533); test: Inhibition of EGFR wild type biochemical enzymatic activity (HTRF); details: 1 mM ATP
T6 construct: purchased Carna Bio
How it was run: as §1

[8] = tested on: PC-9; test: Cell proliferation assay, PC-9 cells (CellTiter-Glo, 72 hours); assay type: cell-based; details: PC9 cells, read-out: GI50 PC9
How it was run: (§2)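 In RPMI1640 medium (PC-9 with 10% FBS), each cell line was seeded at its own density: Ba/F3 5000 and PC-9 500 per well. A compound series was added the next day, with a time-zero viability plate read in parallel. Percent proliferation was subtracted for G0 and referenced to DMSO, and GI50 was derived by curve fitting.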

[9] = molecular target: T7, EGFR Exon19Del (Homo sapiens, UniProt P00533, DEL746-750); test: Inhibition of EGFR Exon19Del biochemical enzymatic activity (HTRF); details: read-out: IC50 @Del19
T7 construct: purchased Carna Bio
How it was run: as §1

[10] = tested on: Ba/F3 cells expressing EGFR mutations; test: Cell proliferation assay, Ba/F3 cells expressing EGFR mutations (CellTiter-Glo, 72 hours); assay type: cell-based
How it was run: as §2

[11] = molecular target: T8, EGFR (C797S L858R) (Homo sapiens, UniProt P00533, C797S/L858R); test: Inhibition of EGFR (C797S L858R) biochemical enzymatic activity (HTRF); details: 1 mM ATP
T8 construct: purchased signalchem
How it was run: as §1

[12] = molecular target: T9, EGFR Exon19Del/T790M (Homo sapiens, UniProt P00533, DEL746-750/T790M); test: Inhibition of EGFR Exon19Del/T790M biochemical enzymatic activity (HTRF); details: 1 mM ATP
T9 construct: purchased Carna Bio
How it was run: as §1

[13] = Homo sapiens, A-431, A-431 cells
[14] = Mus musculus, BaF3, 72 h, BaF3 cells, EGFR DEL19 - C797S, read-out: GI50 DEL19 - C797S/BaF3
[15] = Mus musculus, BaF3, 72 h, BaF3 cells, EGFR DEL19 - T790-C797S, read-out: GI50 DEL19 - T790-C797S/BaF3
[16] = Mus musculus, BaF3, 72 h, BaF3 cells, EGFR L858R - C797S, read-out: GI50 L858R - C797S/BaF3
[17] = Mus musculus, BaF3, 72 h, BaF3 cells, EGFR L858R - T790-C797S, read-out: GI50 L858R - T790-C797S/BaF3
[18] = Mus musculus, BaF3, 72 h, BaF3 cells, EGFR L858R - T790M, read-out: GI50 L858R - T790M/BaF3
[19] = Mus musculus, BaF3, 72 h, BaF3 cells, EGFR L858R, read-out: GI50 L858R/BaF3
[20] = Mus musculus, BaF3, 72 h, EGFR DEL19 - T790M, read-out: GI50 DEL19 - T790M
[21] = EGFR[T790M/C797S/d746-750], 1 mM ATP, 1 h at room temperature, read-out: IC50 @T790M - C797S - Del19
[22] = EGFR (d746-750 C797S), 1 h at room temperature, read-out: IC50 @Del19-C797S
[23] = EGFR L858R/T790M, 1 h at room temperature, read-out: IC50 @L858R-T790M
[24] = EGFR[T790M/C797S/L858R], 1 h at room temperature, read-out: IC50 @T790M- C797S - L858R
[25] = 1 h at room temperature, read-out: IC50 @L858R
[26] = EGFR wild type, 1 h at room temperature, read-out: IC50 @WT
[27] = EGFR Exon19Del, 1 mM ATP, 1 h at room temperature
[28] = BaF3 cells, EGFR DEL19 - C797S, read-out: GI50 DEL19 - C797S/BaF3
[29] = BaF3 cells, EGFR DEL19 - T790-C797S, read-out: GI50 DEL19 - T790-C797S/BaF3
[30] = BaF3 cells, EGFR L858R - C797S, read-out: GI50 L858R - C797S/BaF3
[31] = BaF3 cells, EGFR L858R - T790-C797S, read-out: GI50 L858R - T790-C797S/BaF3
[32] = BaF3 cells, EGFR L858R - T790M, read-out: GI50 L858R - T790M/BaF3
[33] = BaF3 cells, EGFR L858R, read-out: GI50 L858R/BaF3
[34] = EGFR DEL19 - T790M, read-out: GI50 DEL19 - T790M
[35] = EGFR (C797S L858R), 1 h at room temperature, read-out: IC50 @L858-C797S
[36] = EGFR Exon19Del/T790M, 1 h at room temperature, read-out: IC50 @Del19-T790M

T1 sequence (P00533 with tags, fused parts or gaps DEL746-750/T790M/C797S limits assumed): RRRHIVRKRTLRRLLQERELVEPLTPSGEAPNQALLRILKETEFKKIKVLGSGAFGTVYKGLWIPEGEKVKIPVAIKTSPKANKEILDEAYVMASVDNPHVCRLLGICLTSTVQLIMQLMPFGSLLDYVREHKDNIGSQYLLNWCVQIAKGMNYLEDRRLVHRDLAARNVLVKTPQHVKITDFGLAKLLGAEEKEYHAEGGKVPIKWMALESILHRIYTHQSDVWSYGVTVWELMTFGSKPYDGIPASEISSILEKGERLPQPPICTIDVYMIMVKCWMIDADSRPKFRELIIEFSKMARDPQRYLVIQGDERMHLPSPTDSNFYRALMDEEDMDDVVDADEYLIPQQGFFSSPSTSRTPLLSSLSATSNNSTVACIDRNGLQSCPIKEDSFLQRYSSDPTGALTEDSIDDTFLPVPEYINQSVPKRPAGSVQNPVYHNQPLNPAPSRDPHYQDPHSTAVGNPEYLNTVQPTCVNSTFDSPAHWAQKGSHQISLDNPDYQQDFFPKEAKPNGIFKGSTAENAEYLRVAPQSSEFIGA
T5 sequence (P00533 25-1210 L858R): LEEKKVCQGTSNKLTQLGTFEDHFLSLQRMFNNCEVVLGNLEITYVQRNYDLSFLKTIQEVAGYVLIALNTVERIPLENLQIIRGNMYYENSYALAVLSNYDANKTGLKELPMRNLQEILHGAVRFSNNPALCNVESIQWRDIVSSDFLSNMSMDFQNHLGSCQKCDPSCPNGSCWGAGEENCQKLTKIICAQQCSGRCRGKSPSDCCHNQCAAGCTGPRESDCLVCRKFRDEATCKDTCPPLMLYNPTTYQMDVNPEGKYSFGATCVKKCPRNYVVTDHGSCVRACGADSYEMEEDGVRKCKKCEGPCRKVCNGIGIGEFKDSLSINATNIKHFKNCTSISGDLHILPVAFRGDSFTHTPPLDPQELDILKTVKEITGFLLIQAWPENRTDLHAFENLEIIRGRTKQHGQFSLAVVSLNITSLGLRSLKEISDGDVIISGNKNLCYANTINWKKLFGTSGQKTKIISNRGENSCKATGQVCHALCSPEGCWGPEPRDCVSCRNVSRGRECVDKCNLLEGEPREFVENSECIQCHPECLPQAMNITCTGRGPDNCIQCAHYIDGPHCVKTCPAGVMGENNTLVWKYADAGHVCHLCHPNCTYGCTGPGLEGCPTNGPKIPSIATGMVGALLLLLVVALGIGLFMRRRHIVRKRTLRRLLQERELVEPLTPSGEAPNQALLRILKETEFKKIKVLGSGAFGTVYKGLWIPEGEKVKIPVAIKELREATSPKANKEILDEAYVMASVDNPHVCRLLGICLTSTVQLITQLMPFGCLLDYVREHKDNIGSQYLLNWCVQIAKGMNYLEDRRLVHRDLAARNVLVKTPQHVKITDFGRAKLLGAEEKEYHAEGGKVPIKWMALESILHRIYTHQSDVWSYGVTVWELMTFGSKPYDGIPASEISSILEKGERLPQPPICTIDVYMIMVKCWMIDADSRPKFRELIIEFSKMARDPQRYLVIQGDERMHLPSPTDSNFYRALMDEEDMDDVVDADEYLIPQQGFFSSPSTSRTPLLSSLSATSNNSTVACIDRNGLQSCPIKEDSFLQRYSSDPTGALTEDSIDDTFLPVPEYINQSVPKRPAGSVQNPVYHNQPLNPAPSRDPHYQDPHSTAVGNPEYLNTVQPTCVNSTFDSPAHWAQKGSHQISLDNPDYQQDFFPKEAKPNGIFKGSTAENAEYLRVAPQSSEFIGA
T4 sequence (P00533 25-1210 T790M/C797S/L858R): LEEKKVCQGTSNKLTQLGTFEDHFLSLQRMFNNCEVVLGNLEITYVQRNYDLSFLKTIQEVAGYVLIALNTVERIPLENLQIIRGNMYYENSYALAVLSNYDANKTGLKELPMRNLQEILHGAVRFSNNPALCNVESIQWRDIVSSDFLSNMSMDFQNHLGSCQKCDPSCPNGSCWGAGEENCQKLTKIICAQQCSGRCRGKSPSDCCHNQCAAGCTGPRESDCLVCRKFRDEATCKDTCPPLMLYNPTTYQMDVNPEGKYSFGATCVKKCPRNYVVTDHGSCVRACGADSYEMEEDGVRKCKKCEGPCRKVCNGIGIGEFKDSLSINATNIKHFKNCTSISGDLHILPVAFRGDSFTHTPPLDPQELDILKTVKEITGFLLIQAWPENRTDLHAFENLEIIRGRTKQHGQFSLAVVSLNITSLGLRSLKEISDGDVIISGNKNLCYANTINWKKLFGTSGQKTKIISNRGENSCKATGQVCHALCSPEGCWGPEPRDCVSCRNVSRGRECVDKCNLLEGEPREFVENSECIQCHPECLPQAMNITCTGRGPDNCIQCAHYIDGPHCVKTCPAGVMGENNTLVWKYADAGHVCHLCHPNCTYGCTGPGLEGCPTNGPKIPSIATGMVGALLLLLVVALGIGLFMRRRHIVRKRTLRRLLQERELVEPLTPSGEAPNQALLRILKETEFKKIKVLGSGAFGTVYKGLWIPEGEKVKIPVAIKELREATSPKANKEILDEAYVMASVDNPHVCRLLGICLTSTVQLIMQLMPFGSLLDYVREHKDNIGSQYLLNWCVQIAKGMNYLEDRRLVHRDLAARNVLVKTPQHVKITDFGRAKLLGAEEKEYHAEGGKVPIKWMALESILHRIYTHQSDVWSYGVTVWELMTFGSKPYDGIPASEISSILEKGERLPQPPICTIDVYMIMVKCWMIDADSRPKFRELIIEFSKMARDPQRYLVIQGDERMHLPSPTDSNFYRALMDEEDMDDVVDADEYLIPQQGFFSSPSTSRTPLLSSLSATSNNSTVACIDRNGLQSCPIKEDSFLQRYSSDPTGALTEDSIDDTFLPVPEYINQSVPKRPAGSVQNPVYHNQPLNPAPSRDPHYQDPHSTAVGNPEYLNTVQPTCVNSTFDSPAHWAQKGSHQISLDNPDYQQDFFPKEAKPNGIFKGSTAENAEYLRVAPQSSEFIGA
T3 sequence (P00533 25-1210 T790M/L858R): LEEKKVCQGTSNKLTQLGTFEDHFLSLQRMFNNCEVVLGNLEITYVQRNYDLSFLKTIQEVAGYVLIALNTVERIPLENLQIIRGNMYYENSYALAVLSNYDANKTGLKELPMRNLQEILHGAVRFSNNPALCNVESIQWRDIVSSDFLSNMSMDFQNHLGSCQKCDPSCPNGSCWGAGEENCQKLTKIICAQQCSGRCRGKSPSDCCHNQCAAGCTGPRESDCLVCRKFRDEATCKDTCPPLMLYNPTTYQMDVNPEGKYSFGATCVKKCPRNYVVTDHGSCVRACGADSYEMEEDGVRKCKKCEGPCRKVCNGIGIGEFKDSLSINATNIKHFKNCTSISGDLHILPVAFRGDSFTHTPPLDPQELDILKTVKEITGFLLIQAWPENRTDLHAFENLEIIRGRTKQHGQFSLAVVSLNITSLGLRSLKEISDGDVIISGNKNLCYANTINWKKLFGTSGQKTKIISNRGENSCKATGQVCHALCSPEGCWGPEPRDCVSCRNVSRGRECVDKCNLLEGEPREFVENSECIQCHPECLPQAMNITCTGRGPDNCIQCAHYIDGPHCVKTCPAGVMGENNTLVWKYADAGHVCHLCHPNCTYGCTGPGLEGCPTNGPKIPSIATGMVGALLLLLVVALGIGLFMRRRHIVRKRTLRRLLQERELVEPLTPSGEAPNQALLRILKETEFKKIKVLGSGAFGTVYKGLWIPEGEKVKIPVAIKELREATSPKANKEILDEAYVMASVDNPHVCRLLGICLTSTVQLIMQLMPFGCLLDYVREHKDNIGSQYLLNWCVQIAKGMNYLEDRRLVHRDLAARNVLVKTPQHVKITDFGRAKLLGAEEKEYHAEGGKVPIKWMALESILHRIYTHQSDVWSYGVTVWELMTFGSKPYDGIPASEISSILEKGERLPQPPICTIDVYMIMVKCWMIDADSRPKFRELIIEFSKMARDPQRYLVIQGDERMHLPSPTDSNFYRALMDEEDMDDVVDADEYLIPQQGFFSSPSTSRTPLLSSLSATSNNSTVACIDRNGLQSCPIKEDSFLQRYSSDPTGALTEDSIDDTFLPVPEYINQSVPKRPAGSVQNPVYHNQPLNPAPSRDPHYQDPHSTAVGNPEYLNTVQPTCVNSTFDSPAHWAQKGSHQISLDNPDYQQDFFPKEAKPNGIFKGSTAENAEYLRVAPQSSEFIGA
T7 sequence (P00533 with tags, fused parts or gaps DEL746-750 limits assumed): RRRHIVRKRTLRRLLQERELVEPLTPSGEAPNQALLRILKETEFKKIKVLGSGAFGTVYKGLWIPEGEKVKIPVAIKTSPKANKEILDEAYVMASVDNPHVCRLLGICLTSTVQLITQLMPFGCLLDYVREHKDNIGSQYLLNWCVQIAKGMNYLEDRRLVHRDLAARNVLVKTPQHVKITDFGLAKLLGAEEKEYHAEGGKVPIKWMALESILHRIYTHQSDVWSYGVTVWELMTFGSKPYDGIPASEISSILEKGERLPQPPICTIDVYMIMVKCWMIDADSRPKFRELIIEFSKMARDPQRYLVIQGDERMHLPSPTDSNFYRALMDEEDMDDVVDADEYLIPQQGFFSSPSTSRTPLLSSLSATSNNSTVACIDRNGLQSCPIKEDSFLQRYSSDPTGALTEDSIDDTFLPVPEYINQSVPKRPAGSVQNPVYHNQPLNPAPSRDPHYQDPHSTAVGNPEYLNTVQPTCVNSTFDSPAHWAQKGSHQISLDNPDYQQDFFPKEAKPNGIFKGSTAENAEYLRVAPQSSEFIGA

GI50 [1, 13] [nM]	GI50 ([8]; Homo sapiens, PC-9, 72 h) [nM]	GI50 [10, 14] [nM]	GI50 [10, 15] [nM]	GI50 [10, 16] [nM]	GI50 [10, 17] [nM]	GI50 [10, 18] [nM]	GI50 [10, 19] [nM]	GI50 [10, 20] [nM]	IC50 [2, 21] [nM]	IC50 [3, 22] [nM]	IC50 [4, 23] [nM]	IC50 [5, 24] [nM]	IC50 [6, 25] [nM]	IC50 [7, 26] [nM]	GI50 [8] [nM]	IC50 [9, 27] [nM]	GI50 [10, 28] [nM]	IC50 [11, 35] [nM]	IC50 [12, 36] [nM]	other results	SMILES
1510	57	4.3	20	38	32	80	16	12												IC50 ([2]; EGFR T790M-C797S-Del19, 1 mM ATP, 1 h, room temperature, read-out: IC50 (nM) @T790M - C797S - Del19): 2.5 nM; IC50 ([3]; EGFR Del19-C797S, 1 h, room temperature, read-out: IC50 (nM) @Del19-C797S): 8.1 nM; IC50 ([4]; EGFR L858R-T790M, 1 h, room temperature, read-out: IC50 (nM) @L858R-T790M): 1910 nM; IC50 ([5]; EGFR T790M-C797S-L858R, 1 h, room temperature, read-out: IC50 (nM) @T790M- C797S - L858R): 280 nM; IC50 ([6]; 1 h, room temperature, read-out: IC50 (nM) @L858R): 463 nM; IC50 ([7]; EGFR WT, 1 h, room temperature, read-out: IC50 (nM) @WT): > 5000 nM; IC50 ([9]; EGFR Del19, 1 mM ATP, 1 h, room temperature): 23 nM; IC50 ([11]; EGFR L858-C797S, 1 h, room temperature, read-out: IC50 (nM) @L858-C797S): 23 nM; IC50 ([12]; EGFR Del19-T790M, 1 h, room temperature, read-out: IC50 (nM) @Del19-T790M): 3.3 nM	Cn1ncc2c1OCCN1CC3CCC(C3)(C1)n1c(nc3cc(F)ccc31)NC(=O)c1cc-2c(=O)n(C)c1 (stereo not drawn) [Example A117B, 6-fluoro-15,21-dimethyl-23-oxa-2,9,11,15,20,21,26-heptaazaheptacyclo[24.4.1.1^{1,28}.1^{13,17}.0^{2,10}.0^{3,8}.0^{18,22}]tritriaconta-3,5,7,9,13,17(33),18(22),19-octaene-12,16-dione]
437									3	3	4.8	2.3	36	489	7	6.6	2	9	5.2	GI50 [10, 29]: 2 nM; GI50 [10, 30]: 7 nM; GI50 [10, 31]: 2 nM; GI50 [10, 32]: 2 nM; GI50 [10, 33]: 12 nM; GI50 [10, 34]: 2 nM	Cc1cc2cc(n1)-c1cnn(C)c1OCCN1CC3CCC(C3)(C1)n1c(nc3ccc(N4CC5CN(C)CC5C4)cc31)NC2=O (single isomer, unassigned) [Example B43B]
6390	2850	620	251	2120	290	1170	3560	298	3990	659	> 5000	> 5000	> 5000	> 5000		729		> 5000	4000		Cc1cc2cc(n1)-c1cnn(C)c1OCCN1CC3CCC(C3)(C1)n1c(nc3ccccc31)NC2=O (single isomer, unassigned) [Example B8A, 15,21-dimethyl-23-oxa-2,9,11,16,20,21,26-heptaazaheptacyclo[24.4.1.1^{1,28}.1^{13,17}.0^{2,10}.0^{3,8}.0^{18,22}]tritriaconta-3,5,7,9,13,15,17(33),18(22),19-nonaen-12-one]
									2.2	2.3	2.6	2.6	212	3370	41	4.6	0.79	59	2.8	GI50 ([1]; A-431 cells): 1730 nM; GI50 [10, 29]: 0.84 nM; GI50 [10, 30]: 18 nM; GI50 [10, 31]: 0.91 nM; GI50 [10, 32]: 2.1 nM; GI50 [10, 33]: 24 nM; GI50 [10, 34]: 0.89 nM	Cc1cc2cc(n1)-c1cnn(C)c1OCCN1CC3CCC(C3)(C1)n1c(nc3ccc(N4CCOCC4)cc31)NC2=O (single isomer, unassigned) [Example B10A, 15,21-Dimethyl-5-(morpholin-4-yl)-23-oxa-2,9,11,16,20,21,26-heptaazaheptacyclo[24.4.1.1^{1,28}.1^{13,17}.0^{2,10}.0^{3,8}.0^{18,22}]tritriaconta-3,5,7,9,13,15,17(33),18(22),19-nonaen-12-one]
